From PMC10649752, “Design and Synthesis of Novel Chalcone Derivatives: Anti-Breast Cancer Activity Evaluation and Docking Study” (International Journal of Molecular Sciences, 2023) come the findings set out here.

Common to all, as to format: cell-based
Assay [1] relates to MCF-7 cells. The assay is described as follows: CCK-8 antiproliferative activity on MCF-7 cells. How it is done: (§1) DMEM high glucose medium and fetal calf serum were obtained from Gibco (New York, NY, USA), and cell counting Kit-8 solution was purchased from Meilunbio (Dalian, China). Paraformaldehyde and Crystal Violet were purchased from Biosharp (Hefei, China). The MCF-7 and L-02 cell lines were purchased from the Shanghai Institute of Biochemistry (Shanghai, China) All the target compounds and 5-fluorouracil (5-Fu) were dissolved with DMSO at a concentration of 20 mM. Cell culture medium was a mixture of DMEM medium, 10% fetal bovine serum, and 1% penicillin–streptomycin solution stored at […]. The cells were grown at 37 °C under 5% CO2.
(§2) Cells were seeded into 96 well plates with 4000 cells/well using DMEM solution and incubated in a humid atmosphere containing 5% CO2 at 37 °C for 24 h. Compounds with different concentrations (200 μM, 100 μM, 50 μM, 25 μM, 12.5 μM, 6.25 μM, 3.125 μM, 1.5625 μM) were added to the culture medium for 24 h. After that, CCK-8 reagent (10 μL) was added under dark conditions and incubated the plate in a CO2 incubator at 37 °C for 2 h. After incubation, the absorbance was measured using an enzyme-linked immunosorbent assay at a wavelength of 450 nm. Cell survival rate was calculated as a percentage of the control group.
(§3) By using Graph Pad Prism 8.0 software, the concentration that inhibits 50% of maximum cell proliferation was determined to be IC50 value.

Assay [2] concerns human normal hepatocyte L-O2. Kind of assay: CCK-8 cytotoxicity against normal hepatocyte L-O2 cells. To be noted: for IC50: human normal hepatocyte L-O2, CCK-8, 24 h. How it is done:
We have selected compounds A7, A8, A9, and A14 with relatively low IC50 values, which are considered to have more potential and are more meaningful for further research. The toxic effects of compounds A7, A8, A9, and A14 on normal hepatocytes cells L-O2 were assessed in this work to examine the selective toxicity of the new compounds on cancer cells without harming normal cells. The selectivity index was calculated as a ratio of L-02 IC50/MCF-7 IC50 for these four compounds. […] Therefore, A8 and A14 were chosen as representative medications for future research after thorough evaluation.
as §1, §2, §3

The test system of assay [3] is MCF-7 cells. Kind of assay: Migration ability assay (wound healing / scratch). Particulars: various concentrations, 24 h and 48 h, vs control group. How it is done:
An obvious feature of breast cancer cells is their strong migration ability. In order to study the inhibitory effect of compounds on breast cancer cells migration, the scratch distances of compounds A8 and A14 on MCF-7 cells at different concentrations were measured by wound healing experiments. […] Moreover, under similar concentrations, the inhibitory migration effect of the target compound on MCF-7 is more excellent than that of the control drug 5-Fu.
MCF-7 cells were seeded into six-well plates at a density of 3000 cells/well and growing for 24 h. Scratches were made in confluent monolayers with 200 μL pipette tip. After that, each well was washed with PBS buffer 3 times to remove non-adherent cell debris. MCF-7 cells were continually incubated with different concentrations of compounds or positive control for 24 or 48 h. The area of cells migrated across the wound was photographed using phase contrast microscopy at 0 h, 24 h, and 48 h. The migration distance of cells into the wound area was measured by ImageJ2 software at room temperature.

For assay [4], the system named is MCF-7 cells. The assay is described as follows: Cell colony formation assay. Particulars: 7 days treatment, drug concentrations greater than 8 µmol/L, vs blank control. How it is done: MCF-7 cells were seeded into six-well plates at a density of 1000 cells/well and cultivated for 24 h. After that, the cells were continually incubated with different concentrations of compounds and positive control for 7 days. Each well was carefully rinsed three times with PBS buffer quickly at room temperature. Collected cells were fixed for 1 h at room temperature by adding 2 mL of 4% paraformaldehyde solution. The results were analyzed using the ImageJ software.

“Also recorded” adds a separate entry of the source.

The term IC50 denotes the midpoint of a concentration-inhibition curve. A high value points to weaker potency in that assay. `O=c1[nH]cc(F)c(=O)[nH]1` [Compound 5-Fu, 5-fluorouracil, reference compound]: the IC50 amounted to 169 µM in assay [1] (Homo sapiens, MCF7, CCK-8, 24 h treatment) and 200 µM in assay [2]. In addition, the “Selectivity Index (SI)” value in assay [2] (ratio L-02 IC50/MCF-7 IC50) is on record as 1.18.
For the compound `COc1cc(C(=O)/C=C/c2ccc(C(=O)NCc3cccs3)cc2)cc(OC)c1OC` [Compound A7, (E)-4-(3-oxo-3-(3,4,5-trimethoxyphenyl)prop-1-en-1-yl)-N-(thiophen-2-ylmethyl) benzamide], in assay [1] (CCK-8, 24 h treatment), the 50% inhibitory concentration (IC50) was determined as 19.1 µM.
Take `COc1cc(C(=O)/C=C/c2ccc(C(=O)NCC3CCOC3)cc2)cc(OC)c1OC` (stereo not drawn) [Compound A8, (E)-4-(3-oxo-3-(3,4,5-trimethoxyphenyl)prop-1-en-1-yl)-N-((tetrahydrofuran-3-yl)methyl) benzamide]: the IC50 in assay [1] (CCK-8, 24 h treatment) turned out to be 16.7 µM; in assay [2] it was 47.2 µM. The “Inhibition of MCF-7 cell migration (scratch distance)” value in assay [3] was “inhibited MCF-7 cell migration; also recorded: effectively inhibited the migration of MCF-7 cells in a dose-dependent manner”.
Take `COc1cc(C(=O)/C=C/c2ccc(C(=O)NCC3CC3)cc2)cc(OC)c1OC` [Compound A9, (E)-N-(cyclopropylmethyl)-4-(3-oxo-3-(3,4,5-trimethoxyphenyl)prop-1-en-1-yl) benzamide]: the concentration for half-maximal inhibition (IC50) was 19.6 µM in assay [1] (CCK-8, 24 h treatment) and 35.3 µM in assay [2].
As for `COc1cc(C(=O)/C=C/c2ccc(C(=O)OCCCSc3ccncc3)cc2)cc(OC)c1OC` [Compound A14, 3-(pyridin-4-ylthio) propyl (E)-4-(3-oxo-3-(3,4,5-trimethoxyphenyl)prop-1-en-1-yl) benzoate], in assay [3], the “Inhibition of MCF-7 cell migration (scratch distance)” value is on record as “inhibited MCF-7 cell migration; also recorded: effectively inhibited the migration of MCF-7 cells in a dose-dependent manner”. Besides, the “Colony formation of MCF-7 cells” value in assay [4] is “significantly reduced”. Further, the IC50 in assay [2] stood at 41.2 µM.
